Laboratory results taken from US12716890B2, “Macro tissue explant, methods and uses therefor” (Massachusetts Institute of Technology, priority 2017, dated 2026).
Where two headings read alike, the source gives them in different places. Numbered stars: 1 amine (or outer) side, 2 acyl side, 3 side chain; on linkers, the order of the positions; unused ones are H or OH. Bridge positions count the residues as written; N and C are the ends. Peptide text beside a SMILES is read from it. X1 = O=C(CCC[*:2])[*:1]

How the values were obtained:
[1] = tested on: intestinal tissue explant; type: in vitro ADME, pigs
Description: To assemble the intestinal tissue explant system, freshly isolated intestinal tissue from the jejunum was prepared according to the described tissue dissection procedure and mounted on the manufactured interface design with a generic 96 well plate as a receiver plate (Corning® 96 well plates, clear bottom, Corning) or a UV transparent plate (Corning® 96-well UV Plates, Corning). The jejunum was identified as the region of the small intestine approximately 50 cm after the pylorus. The difference between the jejunum and ileum was determined based on anatomical location, the structural differences of the tissue, differences in blood supply, and fat deposition as well as the presence of lymphoid tissue. For the system in 384-well format, a 384 microplate with glass bottom (Greiner Sensoplate™ glass bottom multiwall plates, Sigma) were used. The tissue was then cultured in this system according to the described cultivation protocol for specific ex vivo cultivation time periods. Intestinal perfusion experiments using the system were conducted only once after 24 hours of ex vivo cultivation unless otherwise noted.
For perfusion experiments the following set up was used: Formulation samples were prepared using a liquid handling station (Evo 150 liquid handling deck, Tecan), an automated dispenser (EL406 Combination Washer Dispenser, BioTek Instruments) was used to fill receiver 96 well plates, a microplate reader (Infinite® M1000 PRO, Tecan) was then used for spectrophotometric analysis. Specifically, formulation samples were prepared following a protocol to mix the pre-pared excipient plate 10 times, pipette the appropriate amount of excipient and dispense into a 96-well plate with the appropriate amount of compound already it in. The excipient/compound formulations were then mixed 60 times and then the appropriate amount was pipetted and dispensed onto the tissue explant. All experiments, including sample incubation, were performed at room temperature. […]

[2] = tested on: gastrointestinal tissue explants derived from either the esophagus, stomach or small intestine
Description: To determine responsiveness of the intestinal tissue explant to toxins, a resazurin-based viability analysis was conducted in various segments of the gastrointestinal tract after exposure to chemicals for a 24 hour time period. Resazurin is an oxidation-reduction indicator and established viability assay for mammalian cells. […] Tissue was incubated in multiwell plates containing media in the receiver chamber and various chemicals at different concentrations in PBS in the donor chamber. After 24 hours viability was measured by resazurin-based viability analysis.

[3] = Pharmacokinetic validation in vivo, formulation delivered to duodenum, oxytocin serum ELISA; conditions: female, Yorkshire, pig, po, pigs, formulation delivered directly to the duodenum, read-out: bioavailability of oxytocin (absolute / average oral)
Description: All animal procedures were conducted in accordance with protocols approved by the Massachusetts Institute of Technology Committee on Animal Care. For tissue experiments, fresh tissue was obtained from local abattoirs within 20 minutes of euthanization.
Pharmacokinetic validation was performed in vivo. Female Yorkshire pigs between 45 and 50 kg in weight were used. Before every experiment, the animals were fasted overnight and on the day of the procedure, the morning feed was held. The animals were sedated with an intramuscular injection of Telazol (tileramine/zolazepam) 5 mg/kg, xylazine 2 mg/kg and atropine 0.04 mg/kg. The duodenum was accessed endoscopically and the formulation directly delivered to the duodenum. Serial blood sampling from the peripheral veins was performed for quantification of oxytocin. For oxytocin serum quantification, an Oxytocin ELISA kit (Cat. no. ab133050, Abcam) was used according to the manufacturer's protocol. […] To investigate the mechanism of absorption enhancement and to analyze potential local effects of the formulation on the small intestine histologically, a surgical procedure coupled with custom-made devices was developed, that enabled controlled exposure of the formulation on a defined area of the intestinal tissue. E-cadherin stained sections of biopsy samples were used to analyze the disruption of cell-cell adhesions.

[4] = target: T1, MDR-1 (Sus scrofa, UniProt K7GMM7); assay: Perfusion of substrate through siRNA-transfected intestinal tissue explant; type: in vitro ADME, pigs
T1 construct: from tissue; host or cells: pig small intestine explant, cultured ex vivo
T1 sequence (K7GMM7 1-1248): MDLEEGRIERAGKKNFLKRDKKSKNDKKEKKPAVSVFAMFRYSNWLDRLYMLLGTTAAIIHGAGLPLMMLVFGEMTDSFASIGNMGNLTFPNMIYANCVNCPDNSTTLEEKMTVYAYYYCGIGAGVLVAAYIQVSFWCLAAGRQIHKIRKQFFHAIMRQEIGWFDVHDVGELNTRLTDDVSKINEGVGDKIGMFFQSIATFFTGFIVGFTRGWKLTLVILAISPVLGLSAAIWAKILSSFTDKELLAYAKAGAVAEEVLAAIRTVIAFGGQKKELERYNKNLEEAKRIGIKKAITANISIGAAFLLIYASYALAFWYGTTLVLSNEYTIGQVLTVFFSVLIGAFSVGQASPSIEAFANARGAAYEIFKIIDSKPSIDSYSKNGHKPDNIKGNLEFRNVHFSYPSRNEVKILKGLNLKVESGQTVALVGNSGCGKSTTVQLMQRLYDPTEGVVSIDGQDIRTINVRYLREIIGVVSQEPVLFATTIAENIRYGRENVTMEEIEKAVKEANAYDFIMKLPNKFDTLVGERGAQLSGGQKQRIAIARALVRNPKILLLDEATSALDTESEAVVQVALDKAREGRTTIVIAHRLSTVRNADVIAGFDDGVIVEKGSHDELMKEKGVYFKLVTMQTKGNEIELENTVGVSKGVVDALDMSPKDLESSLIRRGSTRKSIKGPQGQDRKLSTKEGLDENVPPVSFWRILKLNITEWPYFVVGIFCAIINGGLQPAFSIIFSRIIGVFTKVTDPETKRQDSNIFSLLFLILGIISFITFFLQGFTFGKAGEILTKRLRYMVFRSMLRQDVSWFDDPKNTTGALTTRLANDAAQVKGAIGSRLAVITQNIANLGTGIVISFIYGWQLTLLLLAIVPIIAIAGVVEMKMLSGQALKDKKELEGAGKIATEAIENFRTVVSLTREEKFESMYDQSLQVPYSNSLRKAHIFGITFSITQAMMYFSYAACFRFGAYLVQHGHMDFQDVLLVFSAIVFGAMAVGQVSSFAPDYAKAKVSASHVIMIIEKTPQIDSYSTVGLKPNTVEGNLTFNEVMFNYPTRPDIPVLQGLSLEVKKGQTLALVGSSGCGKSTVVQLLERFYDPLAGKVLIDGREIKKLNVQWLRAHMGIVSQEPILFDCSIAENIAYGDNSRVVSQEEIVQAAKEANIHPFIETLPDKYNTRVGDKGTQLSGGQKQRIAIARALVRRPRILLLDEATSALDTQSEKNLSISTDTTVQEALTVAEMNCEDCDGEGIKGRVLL
Description: Specifically, siRNA was delivered to tissue explants using ultrasound by applying 5 second intervals for 1 minute for 40 kHz generated using a separate ultrasound generator (Sonics and Materials, Inc.) and a custom made 96 tip probe. The following siRNAs at concentrations of 1 μm in deionized water were used: Silencer® Select Pre-Designed siRNA (siRNA ID: s3846, Gene Symbol: CYP3A4), Silencer® Select Pre-Designed siRNA (siRNA ID: s10419, Gene Symbol: ABCB1), Silencer® Select Negative Control No. 1 siRNA.

[5] = tested on: GLP-1 (7-36); assay: GLP-1 stimulation of intestinal tissue explant, ELISA of GLP-1 (7-36); type: cell-based, pigs; conditions: varying doses for 24 hours
Description: As determined in Example 1, the intestinal tissue explant comprises endocrine cells, determined by the expression of […] and Glucagon-like peptide-1 (GLP-1). Therefore, the ability of the intestinal tissue explant to respond to known GLP-1 stimulants was investigated. Specifically, acetylcholine, LiCl, and glucose were added to the intestinal tissue explant at varying doses for 24 hours, then cells within the apical side of the intestinal epithelium were isolated. The concentration of active cleaved peptide of GLP-1 (GLP-1 (7-36)) of these cell lysates was determined by ELISA analysis. […] The stimulation of GLP-1 secretion by acetylcholine, LiCl and glucose, which act through different pathways, indicated these pathways were intact in the intestinal tissue explant. The Acetylcholine and LiCl act as non-nutrient stimulators of GLP-1 that are reported to simulate GLP-1 activity via neuronal regulation. Glucose triggers GLP-1 activity via nutrient-based pathways.

CC[C@H](C)[C@@H]1NC(=O)[C@H](Cc2ccc(OC)cc2)NC(=O)CCCSC[C@@H](C(=O)N2CCC[C@H]2C(=O)N[C@@H](CC(C)C)C(=O)NCC(N)=O)NC(=O)[C@H](CC(N)=O)NC(=O)[C@H](CCC(N)=O)NC1=O [carbetocin] (Y(Me)IQNCPLG-NH2; linker N-5 via X1)
intestinal absorption/perfusion of model drug formulated with polyethyleneimine (800 Da, end-capped) [1]: limited increase in intestinal perfusion

Polyethyleneimine [Polyethyleneimine (800 Da, end-capped)]
intestinal perfusion of oxytocin formulated with excipient [1]: increased the intestinal perfusion of oxytocin several fold

Alexa488-insulin: human insulin (recombinant) labeled with Alexa Fluor 488 NHS Ester
intestinal absorption/perfusion of model drug formulated with polyethyleneimine (800 Da, end-capped) [1]: increase the intestinal absorption to various degrees

CO [methanol]
tissue viability [2]: dose-dependent chemically induced decrease in tissue viability

C=O [formalin]
tissue viability ([2]; 24 hours exposure, different concentrations in PBS, esophagus, stomach or small intestine explants): dose-dependent chemically induced decrease in tissue viability

CC[C@H](C)[C@@H]1NC(=O)[C@H](Cc2ccc(O)cc2)NC(=O)[C@@H](N)CSSC[C@@H](C(=O)N2CCC[C@H]2C(=O)N[C@@H](CC(C)C)C(=O)NCC(N)=O)NC(=O)[C@H](CC(N)=O)NC(=O)[C@H](CCC(N)=O)NC1=O [oxytocin]
bioavailability [3]: 0.64%

CNC(=C[N+](=O)[O-])NCCSCc1ccc(CN(C)C)o1 [ranitidine]
perfusion after knock-down of MDR-1 [4]: significant change of perfusion

CCO [ethanol]
tissue viability [2]: dose-dependent chemically induced decrease in tissue viability

[Cl-].[Li+] [LiCl]
concentration of GLP-1 (7-36) in cell lysates [5]: increased concentration so of GLP-1 (7-36) in a dose-dependent manner
